Key:
PBMC [1] = assay: 193 ssRNA 4mer-motif library screen: IL-12 (IL-12p40) production in PBMC of six donors, poly-L-Arg complexation, ELISA at 44 hours, IL-12 index and adjusted IL-12 index; type: cell-based, human; details: donor 3; poly-L-Arg complexed; 44 hours
Outline: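 Human PBMC from six healthy donors were stimulated in duplicate with poly-L-arginine-complexed ssRNA oligonucleotides, and IL-12p40 in supernatant was measured by ELISA at 44 h. Each value was divided by the 9.2sense control on the same plate (IL-12 index), then the donor's mean index was subtracted; adjusted indices are means ± SEM over donors.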

PBMC [2] = assay: IL-12p70 production in PBMC stimulated with complexed RNA oligonucleotides or TLR ligands, ELISA of supernatant after 24 hours; type: cell-based, human; details: for IL-12p70 production within PBMC: TLR ligands at optimal concentrations, RNA complexed with poly-L-arginine
Protocol: FIG. 5: PBMC from three different healthy donors were isolated and stimulated with the following stimuli (form left to right): medium, Poly I:C (10 μg/ml), LPS (1 μg/ml), 3M-001 (1 μM), 3M-007 (1 μM), R848 (5 μg/ml), 3M-002 (1 μM), CpG ODN2216 (3 μg/ml), (the following stimuli were all complexed using poly-L-arginine 88) medium, polyA ssRNA, poly U ssRNA, polyA/U dsRNA, polyc ssRNA, polyG ssRNA, poly C/G dsRNA, 9.1 sense ssRNA, 9.1antisene ssRNA, 9.1duplex dsRNA, 9.2sense ssRNA, 9.2 antisene ssRNA, 9.2duplex dsRNA, 9.3sense ssRNA, 9.3antisene ssRNA and 9.3duplex dsRNA. 24 hours after stimulation supernatants were harvested and analyzed for IL-12p70 (A) and TNF-a (B) production. Data from three individual donors were summarized and depicted as mean values ±SEM. […]

| Compound | IL-12p70 production within PBMC (PBMC [2]) | other results |
| --- | --- | --- |
| 5′-AGCUUAACCUGUCCUUCAA-3′ (RNA, backbone not given here) [9.2sense, standard ssRNA oligonucleotide, positive control on all cell culture plates] |  | IL-12 in supernatant, mean of the two raw values of the duplicates (PBMC [1]): 908 pg/mL; IL-12p70 production, absolute value (PBMC [2]; donor 1, complexed with poly-L-arginine of approx. 88 amino acids): 1390 pg/mL; IL-12p70 production, absolute value (PBMC [2]; donor 2, complexed with poly-L-arginine of approx. 88 amino acids): 396 pg/mL |
| CCCc1nc2c(N)nc3ccccc3c2s1 [3M-002] | able to induce IL-12p70 production |  |
| CCOCc1nc2c(N)nc3ccccc3c2n1CC(C)(C)O [R848] | able to induce IL-12p70 production |  |
| polyA | no activity | IL-12p70 production within PBMC (PBMC [2]; listed as poly adenosine RNA oligonucleotides): completely inactive; IL-12p70 production within PBMC (PBMC [2]; listed as poly adenosine oligonucleotides): inactive |
| polyC | no activity |  |
| polyU | slight yet consistent IL-12 response |  |
